Source: patent US20200262787A1, “OPTICAL COMPONENT FORMING COMPOSITION AND CURED PRODUCT THEREOF” (Mitsubishi Gas Chemical Company, Inc., priority 2016, published 2020)

Experiment: Organic solvent solubility test of compound
Type: physicochemical
Conditions: compound in propylene glycol monomethyl ether acetate, 23° C., ultrasonic waves 30 minutes, visual
Procedure: The solubility of the compound in propylene glycol monomethyl ether acetate was measured as the solubility of the compound in an organic solvent.
A: 5.0% by mass Amount of dissolution
C: Amount of dissolution <3.0% by mass

SMILES | Solubility in organic solvent
Oc1ccc([Te](Cl)(Cl)c2ccc(O)cc2)cc1 [BHPT, bis(4-hydroxyphenyl)tellurium dichloride] | A (5.0% by mass Amount of dissolution)
CC1(OC(=O)COc2ccc([Te](Cl)(Cl)c3ccc(OCC(=O)OC4(C)C5CC6CC(C5)CC4C6)cc3)cc2)C2CC3CC(C2)CC1C3 (centres unmarked) [BHPT-ADBAC, bis(4-(2-methyl-2-adamantyloxycarbonylmethoxy)phenyl)tellurium dichloride] | A (5.0% by mass Amount of dissolution)
CC(C)(C)OC(=O)Oc1ccc([Te](Cl)(Cl)c2ccc(OC(=O)OC(C)(C)C)cc2)cc1 [BHPT-BOC, bis(tert-butoxycarboxyphenyl)tellurium dichloride] | A (5.0% by mass Amount of dissolution)
CCOC(C)Oc1ccc([Te](Cl)(Cl)c2ccc(OC(C)OCC)cc2)cc1 (centres unmarked) [BHPT-EE, bis(ethoxyethylphenyl)tellurium dichloride] | A (5.0% by mass Amount of dissolution)
Oc1ccc([Te](Cl)(Cl)c2ccc(O)cc2O)cc1 [CCHT, (2,4-dihydroxyphenyl) (4-hydroxyphenyl)tellurium dichloride] | A (5.0% by mass Amount of dissolution)
CC1(OC(=O)COc2ccc([Te](Cl)(Cl)c3ccc(OCC(=O)OC4(C)C5CC6CC(C5)CC4C6)cc3OCC(=O)OC3(C)C4CC5CC(C4)CC3C5)cc2)C2CC3CC(C2)CC1C3 (centres unmarked) [CCHT-ADBAC] | A (5.0% by mass Amount of dissolution)
Oc1ccc([Te](Cl)(Cl)c2ccc(O)c(-c3ccccc3)c2)cc1-c1ccccc1 [Ph-BHPT, bis(3-phenyl-4-hydroxyphenyl)tellurium dichloride] | A (5.0% by mass Amount of dissolution)
CC1(OC(=O)COc2ccc([Te](Cl)(Cl)c3ccc(OCC(=O)OC4(C)C5CC6CC(C5)CC4C6)c(-c4ccccc4)c3)cc2-c2ccccc2)C2CC3CC(C2)CC1C3 (centres unmarked) [Ph-BHPT-ADBAC] | A (5.0% by mass Amount of dissolution)
Oc1ccc([Te]c2ccc(O)c(-c3ccccc3)c2)cc1-c1ccccc1 [Ph-TDP, bis(3-phenyl-4-hydroxyphenyl)tellurium] | A (5.0% by mass Amount of dissolution)
CC1(OC(=O)COc2ccc([Te]c3ccc(OCC(=O)OC4(C)C5CC6CC(C5)CC4C6)c(-c4ccccc4)c3)cc2-c2ccccc2)C2CC3CC(C2)CC1C3 (centres unmarked) [Ph-TDP-ADBAC] | A (5.0% by mass Amount of dissolution)
CC(C)(C)OC(=O)COc1ccc([Te]c2ccc(OCC(=O)OC(C)(C)C)c(-c3ccccc3)c2)cc1-c1ccccc1 [Ph-TDP-BOC] | A (5.0% by mass Amount of dissolution)
CCOC(C)Oc1ccc([Te](Cl)(Cl)c2ccc(OC(C)OCC)c(-c3ccccc3)c2)cc1-c1ccccc1 (centres unmarked) [Ph-TDP-EE] | A (5.0% by mass Amount of dissolution)
Oc1ccc([Te]c2ccc(O)cc2)cc1 [TDP, 4,4′-telluriumdiphenol] | A (5.0% by mass Amount of dissolution)
CC1(OC(=O)COc2ccc([Te]c3ccc(OCC(=O)OC4(C)C5CC6CC(C5)CC4C6)cc3)cc2)C2CC3CC(C2)CC1C3 (centres unmarked) [TDP-ADBAC] | A (5.0% by mass Amount of dissolution)
